Reference: US12458578B2, “Composition for inhibiting plaque formation” (SUNSTAR SUISSE SA, priority 2020, dated 2025)

Test system: Fusobacterium (Fusobacterium nucleatum subsp. nucleatum ATCC23726 and ATCC25586)
Test: Study of sterilization effect of quaternary ammonium salt sterilizer liquids (in water) on Fusobacterium, viable count after 30 seconds
Assay type: cell-based
Conditions: for sterilization effect on Fusobacterium (number of viable bacteria): component used singly as sterilizer liquid in water, 0.01-0.10%, 30 seconds contact
Experimental: The alkylpyridinium chlorides and benzyl alkyl dimethyl ammonium chlorides shown below were dissolved in water such that each component had each concentration (0.01%, 0.02%, 0.03%, 0.04%, 0.05%, 0.07%, or 0.10%), and the resulting products were used as sterilizer liquids. In the sterilizer liquids, the components were used singly or in combination. The concentration (%) of an alkylpyridinium chloride in the sterilizer liquids is expressed as w/v %; however, since the solvent is water, and the concentrations are relatively low, the value is almost the same as the value expressed as mass % (w/w %) and can be approximated. • Octylpyridinium chloride (OPC): R=(CH2)7CH3 in the following formula • Dodecylpyridnium chloride (DPC): R=(CH2)11CH3 in the following formula • Cetylpyridinium chloride (CPC): R=(CH2)15CH3 in the following formula
For test bacteria, the following two subspecies of Fusobacterium were used. • Bacteria 1: Fusobacterium nucleatum subsp. nucleatum ATCC23726 • Bacteria 2: Fusobacterium nucleatum subsp. nucleatum ATCC25586
The test bacteria were individually inoculated into 10 ml of GAM bouillon medium (Nissui Pharmaceutical Co., Ltd.) and incubated anaerobically at 37° C. for 2 days. The resulting culture media were used as test bacteria liquids.
The sterilizer liquids (200 μl) at different concentrations were each mixed with the test bacteria liquids (200 μl). Thirty seconds after the mixing, 100 μl of the mixture was collected, and 900 μl of drug inactivation PBS in which soy lecithin and Tween 80 were added to a final concentration of 0.07% and 0.5%, respectively, to phosphate-buffered saline (PBS) was added (the mixture was diluted 10-fold) to inactivate the sterilization properties of the sterilizers. Each mixture was serially diluted 10^1- to 10^7-fold with the drug inactivation PBS (serially diluted mixers).
100 μl each of the prepared serially diluted mixers was smeared on sheep blood agar media for CDC anaerobes (Becton, Dickinson and Company), cultured anaerobically at 37° C. for 3 days, and the number of viable bacteria was counted.
FIGS. 1, 2, and 3 show the results. In the graphs of these figures, the vertical axis represents log (the number of viable bacteria) CFU/ml, with the detection limit of this value being 2.
The concentrations of CPC, DPC, OPC, BKC12, BKC14, and BKC16 in these figures and the following figures represent the concentrations of these components prepared as sterilizer liquids.

| Compound | sterilization effect on Fusobacterium (number of viable bacteria) | also measured |
| --- | --- | --- |
| CCCCCCCCCCCCCCCC[n+]1ccccc1.[Cl-] [CPC, Cetylpyridinium chloride] | did not show a sterilization effect on Fusobacterium | enhancement of the sterilization effect of BKC12 on Fusobacterium (CPC combined with BKC12 in the sterilizer liquid): enhanced the sterilization effect of BKC14 or BKC12 on Fusobacterium; enhancement of the sterilization effect of BKC14 on Fusobacterium (CPC combined with BKC14 in the sterilizer liquid): enhanced the sterilization effect of BKC14 or BKC12 on Fusobacterium; enhancement of the sterilization effect of DPC on Fusobacterium (CPC combined with DPC in the sterilizer liquid): enhanced the sterilization effect of DPC on Fusobacterium; enhancement of the sterilization effect of a quaternary ammonium salt having a C10 to C14 alkyl group on Fusobacterium (cetylpyridinium chloride combined with the quaternary ammonium salt): exhibits an effect of enhancing the sterilization effect of a quaternary ammonium salt having a C10 to C14 alkyl group on Fusobacterium; sterilization effect on Fusobacterium (number of viable bacteria) (listed as Cetylpyridinium chloride): an efficient sterilization effect on Fusobacterium was not observed; sterilization effect on Fusobacterium (number of viable bacteria) (listed as cetylpyridinium chloride): does not produce an efficient sterilization effect on Fusobacterium |
| CCCCCCCCCCCC[N+](C)(C)Cc1ccccc1.[Cl-] [BKC12, Benzyl dodecyl dimethyl ammonium chloride] | showed a sterilization effect on Fusobacterium even at a relatively low concentration | – |
| CCCCCCCCCCCCCC[N+](C)(C)Cc1ccccc1.[Cl-] [BKC14, Benzyl tetradecyl dimethyl ammonium chloride] | showed a sterilization effect on Fusobacterium even at a relatively low concentration | – |
| CCCCCCCCCCCC[n+]1ccccc1.[Cl-] [DPC, Dodecylpyridnium chloride] | showed a sterilization effect on Fusobacterium even at a relatively low concentration | – |
| CCCCCCCC[n+]1ccccc1.[Cl-] [OPC, Octylpyridinium chloride] | did not show a sterilization effect on Fusobacterium | – |
| CCCCCCCCCCCCCCCC[N+](C)(C)Cc1ccccc1.[Cl-] [BKC16, Benzyl hexadecyl dimethyl ammonium chloride] | did not show a sterilization effect on Fusobacterium | – |
